According to patent US10561712B2, “Treatment of cancer and inhibition of metastasis using hemoglobin beta subunit” (UNIVERSITY OF MARYLAND, BALTIMORE, priority 2014, dated 2020):

What was measured:
[1] = test system: MacroNB cells (human neuroblastoma lung macrometastatic variant); experiment: MTS-based viability assay, MacroNB cells; type: cell-based; settings: 72 hr incubation, versus control media
Description: (§1) The human neuroblastoma lung micrometastatic (MicroNB) and macrometastatic (MacroNB) variants were generated using a mouse model for human neuroblastoma metastasis (Nevo et al., 2008) from the parental cell lines MHH-NB11 (Pietsch et al., 1988) and SH-SY5Y (Biedler et al., 1978) as detailed here (Edry Botzer et al., 2011), and were maintained in culture as previously described (Nevo et al., 2008). The MicroNB and MacroNB variants were previously designated DisNB and MetNB, respectively (Edry Botzer et al., 2011). Authentication of MicroNB and MacroNB cells was performed by short tandem repeat analysis of DNA using the Type-it Microsatellite PCR Kit (Qiagen, Valencia, Calif.), for the genes published by the American Type Culture Collection (ATCC) (Manassas, Va.). The parental cell line MHH-NB11 was kindly provided by Dr. T. Pietsch (Department of Neuropathology, University of Bonn Medical Center, Bonn, Germany).
Neuroblastoma cells were seeded (3×10^4 per well) in a 96-well flat-bottomed tissue culture plate. […] Cell viability under normal conditions (starvation medium containing BSA) or after incubation with the relevant factors was monitored after 72 hr using an XTT (XTT cell proliferation kit; Biological Industries) or MTS-based (CellTiter 96® AQueous One Solution Cell Proliferation Assay; Promega) viability assays according to manufacturer instructions. Cells were also counted using the trypan-blue exclusion assay to verify the results obtained by XTT and MTS-based viability assays.
Circular dichroism analysis of human hemoglobin (HB), hemoglobin subunit alpha (HBA) and subunit beta (HBB) indicated a helical structure for all three proteins (FIG. 3C). […] Cell viability under normal conditions (starvation medium) or after incubation with human HBB was monitored after an incubation of 72 hr using an MTS-based viability assay (CellTiter 96® AQueous One Solution Cell Proliferation Assay, Promega) according to the manufacturer instructions. […] Significance was evaluated using Student's t-test for each variant incubated with human HBB compared to incubation with control media (con).

[2] = test system: MicroNB cells (human neuroblastoma lung micrometastatic variant, MHH-NB11); experiment: MTS-based viability assay, MicroNB cells; type: cell-based; settings: 72 hr incubation, versus control media
Description: as §1
(§2) Neuroblastoma cells were seeded (3×10^4 per well) in a 96-well flat-bottomed tissue culture plate. After an incubation of 24 hr, cells were washed and incubated with the relevant factors (detailed in the following sections) diluted in starvation medium (RPMI-1640 containing 5% bovine serum albumin (BSA); Biological Industries, Kibbutz Beit Haemek, Israel; Sigma-Aldrich). Cell viability under normal conditions (starvation medium containing BSA) or after incubation with the relevant factors was monitored after 72 hr using an XTT (XTT cell proliferation kit; Biological Industries) or MTS-based (CellTiter 96® AQueous One Solution Cell Proliferation Assay; Promega) viability assays according to manufacturer instructions. Cells were also counted using the trypan-blue exclusion assay to verify the results obtained by XTT and MTS-based viability assays.
Circular dichroism analysis of human hemoglobin (HB), hemoglobin subunit alpha (HBA) and subunit beta (HBB) indicated a helical structure for all three proteins (FIG. 3C). […] Neuroblastoma cells were seeded (3×10^4 per well) in a 96 well flat-bottomed tissue culture plate. After 24 hr of incubation cells were washed and incubated with human HBB dissolved in starvation medium (RPMI 5% BSA) to the indicated concentrations. Cell viability under normal conditions (starvation medium) or after incubation with human HBB was monitored after an incubation of 72 hr using an MTS-based viability assay (CellTiter 96® AQueous One Solution Cell Proliferation Assay, Promega) according to the manufacturer instructions. Data are means of three independent experiments±SD. Significance was evaluated using Student's t-test for each variant incubated with human HBB compared to incubation with control media (con).

[3] = test system: neuroblastoma cells; experiment: Viability of neuroblastoma cells with N- and C-terminal CNBr fragments of HBB; type: cell-based, human; settings: MTS-based proliferation assay and trypan blue exclusion; 72 hr; FIG. 5B
Description: as §2
Human HBB was incubated at a concentration of 2 mg/ml with 50 mg/ml CNBr (Sigma-Aldrich) in 5% trifluoroacetic acid (Halocarbon). […] After 72 hr of incubation cell viability was assessed as described below.
In order to pin-point the active fragment of the human HBB protein, the protein was cleaved to two fragments using cyanogen bromide (CNBr). […] Significance was evaluated using Student's t-test for each variant incubated with N- or C-terminal fragments of human HBB compared to incubation with control media (not shown).

[4] = test system: MCF-7 breast carcinoma cells; experiment: Viability of cancerous cell lines, MCF-7; settings: MTS-based assay; FIG. 3E
Description: as §2
When incubated with the highest amount of HBB (100 μg), the viability of the following cell lines was inhibited: the breast cancer cell lines T47D and MCF-7, the prostate cancer cell line 22RVi, the cervical cancer cell line Hela, and the melanoma cell lines RALL and RKTJ.

[5] = test system: MicroNB cells inoculated to the adrenal gland; experiment: Orthotopic MicroNB neuroblastoma model, HBB11p i.v. or inhaled versus PBS (Example 7); type: in vivo, athymic nude mice; settings: for size of local tumors versus PBS-treated mice: FIG. 7B, 7C
Description: (§3) An orthotopic inoculation to the adrenal gland of athymic nude mice was performed with either 50 μl of PBSX1 supplemented with 5% BSA, or with 1×10^6 MicroNB cells (generated as described previously (Edry Botzer et al., 2011)) suspended in 50 μl of PBSX1 supplemented with 5% BSA. The intra-adrenal inoculation was performed as detailed here (Nevo et al., 2008). In short, anesthesia was induced by ketamine (100 mg/kg body weight) and 2% xylazine (10 mg/kg body weight) administered intraperitoneally. Tumor cells (1×10^6/50 μl) or PBSX1 5% BSA (50 μl) were injected orthotopically into the left adrenal gland of nude mice.
(§4) The development of local tumors in the adrenal gland was monitored and measured weekly with an external digital caliper. The tumor volume in mm^3 was calculated by the ellipsoid volume calculation formula: Volume=[…] (Tomayko and Reynolds, 1989). At the end of the experiments, local adrenal tumors were weighed.
(§5) For examining the presence of micrometastatic cells in the lungs and bone marrow of mice, organs were harvested at the end of the experiment, and immediately snap frozen in dry ice. RNA was isolated from frozen tissues and used for the generation of first-strand cDNA using an M-MLV Reverse Transcriptase (See below, “RNA preparation and Reverse Transcription Polymerase Chain Reaction”). Quantification of human cells in mouse organs was determined by quantitative real-time PCR (qRT-PCR) assays.
(§6) Mice were orthotopically inoculated with MicroNB cells to the adrenal gland to generate local adrenal tumors and lung and bone marrow micrometastasis (see “Orthotopic inoculation of tumor cells”). Fourteen days post tumor cell inoculation mice were treated either intravenously or intranasally with 1 mg/kg (0.02 mg/mouse) of the short inhibitory human HBB peptide, Metox, once a week for 8 weeks.
(§7) For intranasal administration of Metox, the lyophilized peptide was dissolved prior to each administration in Dimethyl Sulfoxide (DMSO) (Sigma-Aldrich) to a concentration of 0.013 mg/μl, and then diluted in sterile PBSX1 to a concentration of 0.4 μg/μl. The dissolved peptide was filtered (0.2 μm) and mice were forced to inhale 50 μl of Metox (0.02 mg/mouse). Control group was forced to inhale 50 μl of a control scrambled peptide, scrambled-Metox (see “Solid-phase synthesis of Metox and scrambled-Metox peptides”).
Twenty four mice were orthotopically inoculated to the adrenal gland with MicroNB cells. Two weeks post inoculation, mice were either intravenously (IV) injected with HBB11p or PBS, or forced to inhale a droplet of soluble HBB11p, once a week for 8 weeks (FIG. 7A). Mice were monitored weekly for tumor volume. At the end of the experiment, local tumors were weighed and organs were harvested and examined for human neuroblastoma cells and for HBB2 expression using real time PCR (FIG. 7A).

[6] = test system: MicroNB cells inoculated to the adrenal gland; experiment: Orthotopic MicroNB neuroblastoma model, intranasal Metox versus scrambled-Metox (Example 8); type: in vivo, athymic nude mice; settings: intranasal 1 mg/kg once a week for 8 weeks
Description: as §3, §4, §5, §6, §7
In an experiment similar to that described in Example 7, athymic nude mice were orthotopically inoculated with MicroNB cells to the adrenal gland. […] Mice were monitored for tumor volume on a weekly basis.

[7] = HBB11p once a week for 8 weeks, data not shown

HBB2: beta 2 subunit of mouse hemoglobin, SEQ ID NO:1; HPLC peak no. 4 of mouse lung-derived factors
influence on viability of MacroNB cells (in words) [1]: inhibited cell viability
influence on viability of MicroNB cells (in words) [2]: inhibited cell viability

HBA: alpha subunit of human hemoglobin, HPLC-separated from native human hemoglobin [reference compound]
influence on viability of MacroNB cells (in words) [1]: did not influence cell viability
influence on viability of MicroNB cells (in words) [2]: did not influence cell viability

C-terminal fragment: 91 amino acid C-terminal fragment of human HBB from CNBr cleavage, SEQ ID NO:4
influence on neuroblastoma cell viability (in words) [3]: responsible for the inhibitory activity

whole human hemoglobin protein: native human hemoglobin (Sigma), whole protein [reference compound]
influence on viability of MCF-7 breast carcinoma cells (in words) [4]: inhibited cell viability as well but not to the same extent as HBB

ENFRLLGNVLVCVLA (listed as Homo sapiens) [HBB11p]
bone marrow metastasis versus PBS-treated mice [5, 7]: significantly inhibited as well
liver metastasis versus PBS-treated mice [5, 7]: significantly inhibited as well
spleen metastasis versus PBS-treated mice [5, 7]: significantly inhibited as well
lung metastasis versus PBS-treated mice ([5]; HBB11p once a week for 8 weeks, real time PCR, FIG. 7D): significantly inhibited
size of local tumors versus PBS-treated mice ([5]; inhaled droplet of HBB11p once a week for 8 weeks): significantly smaller
size of local tumors versus PBS-treated mice ([5]; intravenous HBB11p once a week for 8 weeks): significantly smaller
weight of local tumors of scrambled-Metox treated mice relative to Metox treated mice ([6]; 70 days post inoculation, FIG. 8C, 8D): significantly higher
metastatic load of MicroNB cells in lungs versus scrambled-Metox ([6]; Real-Time PCR, FIG. 8E): significantly lower
metastatic load of MicroNB cells in bone marrow versus scrambled-Metox ([6]; Real-Time PCR, FIG. 8F): significantly lower
local tumor volume, Metox versus scrambled-Metox treated mice ([6]; twenty days after inoculation, more significant with time, FIG. 8B): a difference was apparent
influence on viability of MicroNB cells (in words) ([2]; listed as Peptide number 11): significantly inhibited the viability
influence on viability of MicroNB cells (in words) ([2]; listed as peptide 11): even greater than that caused by HBB

N-terminal fragment: N-terminal fragment of human HBB from CNBr cleavage, SEQ ID NO:3
influence on neuroblastoma cell viability (in words) [3]: exhibited an inhibitory effect however to a lesser extent
